PubChem BioAssay AID1919007 (Molecular Pharmacology Branch, DTP, NCI, 2023)
Where “and” joins values, the source holds several entries; their conditions need not be identical. Identical values can stand only once.

Tested on: A498 complex spheroids with HUVEC/MSC, growth
Assay: Anticancer human tumor A498 cell line growth inhibition [AhR];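 further: seven day exposure starting three days after spheroid seeding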;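 on viability, T/C: luminescence signal used as a surrogate for viable cells; luminescence viability scaled so 100% equals DMSO vehicle wells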
Conditions: for viability, T/C: stronger effect = lower value
Procedure, shortened: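 Spheroids combined tumor cells with HUVEC endothelial cells and human MSCs as stroma. AhR antagonists were paired with standard or investigational drugs, each dosed in half-log steps down from near clinical Cmax, or from 10 microM where Cmax was unknown.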

[1] = curve of first compound, second compound 0.1 µM
[2] = curve of first compound, second compound 0.316 µM
[3] = curve of first compound, second compound 1 µM
[4] = curve of first compound, second compound 3.16 µM
[5] = curve of first compound, second compound 10 µM
[6] = second compound 0.1 µM, first compound 0.00949 µM
[7] = second compound 0.1 µM, first compound 0.03 µM
[8] = second compound 0.1 µM, first compound 0.0949 µM
[9] = second compound 0.1 µM, first compound 0.3 µM
[10] = second compound 0.1 µM, first compound 0.949 µM
[11] = second compound 0.1 µM, first compound 3 µM
[12] = second compound 0.316 µM, first compound 0.00949 µM
[13] = second compound 0.316 µM, first compound 0.03 µM
[14] = second compound 0.316 µM, first compound 0.0949 µM
[15] = second compound 0.316 µM, first compound 0.3 µM
[16] = second compound 0.316 µM, first compound 0.949 µM
[17] = second compound 0.316 µM, first compound 3 µM
[18] = second compound 1 µM, first compound 0.00949 µM
[19] = second compound 1 µM, first compound 0.03 µM
[20] = second compound 1 µM, first compound 0.0949 µM
[21] = second compound 1 µM, first compound 0.3 µM
[22] = second compound 1 µM, first compound 0.949 µM
[23] = second compound 1 µM, first compound 3 µM
[24] = second compound 3.16 µM, first compound 0.00949 µM
[25] = second compound 3.16 µM, first compound 0.03 µM
[26] = second compound 3.16 µM, first compound 0.0949 µM
[27] = second compound 3.16 µM, first compound 0.3 µM
[28] = second compound 3.16 µM, first compound 0.949 µM
[29] = second compound 3.16 µM, first compound 3 µM
[30] = second compound 10 µM, first compound 0.00949 µM
[31] = second compound 10 µM, first compound 0.03 µM
[32] = second compound 10 µM, first compound 0.0949 µM
[33] = second compound 10 µM, first compound 0.3 µM
[34] = second compound 10 µM, first compound 0.949 µM
[35] = second compound 10 µM, first compound 3 µM

Nc1ncn(C2CC(O)C(CO)O2)c(=O)n1 (configuration not stated) + CC(CO)NC(=O)c1cc(-c2ccc(Cl)cc2)nn(-c2cnn(C)c2)c1=O
IC50 [1]: > 1000 nM
IC50 [2]: > 1000 nM
IC50 [3]: > 1000 nM
IC50 [4]: > 1000 nM
IC50 [5]: > 1000 nM
viability, T/C (second compound 0.1 µM, first compound 0.00316 µM): 96.1%
viability, T/C (second compound 0.1 µM, first compound 0.01 µM): 91.9%
viability, T/C (second compound 0.1 µM, first compound 0.0316 µM): 88%
viability, T/C (second compound 0.1 µM, first compound 0.1 µM): 76.1%
viability, T/C (second compound 0.1 µM, first compound 0.316 µM): 77.8%
viability, T/C (second compound 0.1 µM, first compound 1 µM): 66.7%
viability, T/C (second compound 0.316 µM, first compound 0.00316 µM): 83.7%
viability, T/C (second compound 0.316 µM, first compound 0.01 µM): 97.2%
viability, T/C (second compound 0.316 µM, first compound 0.0316 µM): 86.2%
viability, T/C (second compound 0.316 µM, first compound 0.1 µM): 78.2%
viability, T/C (second compound 0.316 µM, first compound 0.316 µM): 76%
viability, T/C (second compound 0.316 µM, first compound 1 µM): 66.9%
viability, T/C (second compound 1 µM, first compound 0.00316 µM): 88.3%
viability, T/C (second compound 1 µM, first compound 0.01 µM): 87%
viability, T/C (second compound 1 µM, first compound 0.0316 µM): 88.4%
viability, T/C (second compound 1 µM, first compound 0.1 µM): 75.1%
viability, T/C (second compound 1 µM, first compound 0.316 µM): 75.4%
viability, T/C (second compound 1 µM, first compound 1 µM): 67%
viability, T/C (second compound 3.16 µM, first compound 0.00316 µM): 79.7%
viability, T/C (second compound 3.16 µM, first compound 0.01 µM): 85.7%
viability, T/C (second compound 3.16 µM, first compound 0.0316 µM): 84%
viability, T/C (second compound 3.16 µM, first compound 0.1 µM): 70.7%
viability, T/C (second compound 3.16 µM, first compound 0.316 µM): 67.1%
viability, T/C (second compound 3.16 µM, first compound 1 µM): 59.2%
viability, T/C (second compound 10 µM, first compound 0.00316 µM): 62%
viability, T/C (second compound 10 µM, first compound 0.01 µM): 67.1%
viability, T/C (second compound 10 µM, first compound 0.0316 µM): 67%
viability, T/C (second compound 10 µM, first compound 0.1 µM): 55.8%
viability, T/C (second compound 10 µM, first compound 0.316 µM): 52.8%
viability, T/C (second compound 10 µM, first compound 1 µM): 53.6%

O=C(C=Cn1cnc(-c2cc(C(F)(F)F)cc(C(F)(F)F)c2)n1)NNc1cnccn1 + CC(CO)NC(=O)c1cc(-c2ccc(Cl)cc2)nn(-c2cnn(C)c2)c1=O
IC50 [1]: 58.5 nM
IC50 [2]: 51.6 nM
IC50 [3]: 45.8 nM
IC50 [4]: 32.7 nM
IC50 [5]: 9.75 nM
viability, T/C [6]: 72.7%
viability, T/C [7]: 69%
viability, T/C [8]: 36.2%
viability, T/C [9]: 23.2%
viability, T/C [10]: 22.3%
viability, T/C [11]: 17.8%
viability, T/C [12]: 74.8%
viability, T/C [13]: 62.7%
viability, T/C [14]: 35.4%
viability, T/C [15]: 23.1%
viability, T/C [16]: 17.9%
viability, T/C [17]: 14.7%
viability, T/C [18]: 67.2%
viability, T/C [19]: 58.8%
viability, T/C [20]: 35.3%
viability, T/C [21]: 23.1%
viability, T/C [22]: 18.5%
viability, T/C [23]: 16.7%
viability, T/C [24]: 61.3%
viability, T/C [25]: 51.4%
viability, T/C [26]: 32.1%
viability, T/C [27]: 20.7%
viability, T/C [28]: 15.7%
viability, T/C [29]: 18.4%
viability, T/C [30]: 49.9%
viability, T/C [31]: 46.5%
viability, T/C [32]: 31.2%
viability, T/C [33]: 20.9%
viability, T/C [34]: 18.5%
viability, T/C [35]: 17.4%

CCN(c1cc(-c2ccc(CN3CCOCC3)cc2)cc(C(=O)NCc2c(C)cc(C)[nH]c2=O)c1C)C1CCOCC1 + Cc1cncc(-c2nc(NCCc3c[nH]c4ccccc34)c3ncn(C(C)C)c3n2)c1
IC50 [1]: > 3000 nM
IC50 [2]: > 3000 nM
IC50 [3]: > 3000 nM
IC50 [4]: < 9.49 nM
IC50 [5]: < 9.49 nM
viability, T/C [6]: 94%
viability, T/C [7]: 97%
viability, T/C [8]: 90.2%
viability, T/C [9]: 87.7%
viability, T/C [10]: 97.7%
viability, T/C [11]: 88.4%
viability, T/C [12]: 103%
viability, T/C [13]: 94.2%
viability, T/C [14]: 101%
viability, T/C [15]: 90%
viability, T/C [16]: 97.4%
viability, T/C [17]: 91.5%
viability, T/C [18]: 88.8%
viability, T/C [19]: 91.4%
viability, T/C [20]: 86.1%
viability, T/C [21]: 81.3%
viability, T/C [22]: 82%
viability, T/C [23]: 88.1%
viability, T/C [24]: 44.6%
viability, T/C [25]: 45%
viability, T/C [26]: 47.2%
viability, T/C [27]: 44.5%
viability, T/C [28]: 45.7%
viability, T/C [29]: 39.5%
viability, T/C [30]: 4.35%
viability, T/C [31]: 4.58%
viability, T/C [32]: 6.5%
viability, T/C [33]: 4.8%
viability, T/C [34]: 2.06%
viability, T/C [35]: 1.26%

CC(C)c1c(-c2ccccc2)nc2c(C#N)c[nH]n2c1=O
viability, T/C (compound 0.0316 µM): 109% and 96.5% and 102%
viability, T/C (compound 0.1 µM): 113% and 109% and 96%
viability, T/C (compound 0.316 µM): 104% and 105% and 96.3%
viability, T/C (compound 1 µM): 99.8% and 104% and 97.1%
viability, T/C (compound 3.16 µM): 102% (2×) and 98.6%
viability, T/C (compound 10 µM): 106% and 112% and 96.8%
IC50 (curve of compound): > 10000 nM
